# Literature values as cited in PMC10376326, “Novel Acylselenourea Derivatives: Dual Molecules with Anticancer and Radical Scavenging Activity” (Antioxidants, 2023).
# Design: method as in PMID 36671001
# Conditions: selenoester analogs, 0.03 mg/mL, 90 min; cited from earlier work
row,Structure (SMILES),DPPH Inhibitory%
1,C#CC[Se]C(=O)c1cccs1 [C00003 2-thiophenyl],0.0 ± 2.1%
2,C=CC[Se]C(=O)c1cccnc1 [C00001 3-pyridyl],6.3 ± 2.9%
3,C=CC[Se]C(=O)c1ccccc1 [C00001 phenyl],9.0 ± 1.2%
4,C=CC[Se]C(=O)c1cccs1 [C00001 2-thiophenyl],7.8 ± 10.4%
5,C#CC[Se]C(=O)C=Cc1ccccc1 [C00003 2-phenylvinyl],2.4 ± 2.0%
6,C=CC[Se]C(=O)C=Cc1ccccc1 [C00001 2-phenylvinyl],3.6 ± 5.3%
7,C#CC[Se]C(=O)c1ccco1 [C00003 2-furyl],5.4 ± 2.3%
8,"C=CC[Se]C(=O)c1ccc2c(c1)OCO2 [C00001 5-benzo[d][1, 3]dioxyl]",0.0 ± 2.3%
9,C#CC[Se]C(=O)c1cccnc1 [C00003 3-pyridyl],7.4 ± 0.7%
